# Reference: patent US20150087627A1, “COMBINATION OF KINASE INHIBITORS AND USES THEREOF” (Intellikine LLC, priority 2011, published 2015)
# Legend:
# [1] = test system: anti-TNP antibody production; assay: TNP-Ficoll T-cell independent B-cell activation assay; format: in vivo, mice; settings: 30, 60 or 120 mg/kg for 7 days, FIG. 8
# Experimental: To test the effects of the compounds of the present invention in suppressing T cell independent antibody production, the TNP-Ficoll B-cell activation assay is used as described herein. Compounds of the present invention are dissolved in an appropriate vehicle (e.g. 5% 1-methyl-2-pyrrolidinone, 85% polyethylene glycol 400, 10% Solutor). Compounds are administered orally approximately 1 hr before TNP-Ficoll treatment to 4-10 week old mice. To study the effects of the compounds on B-cell activation, one set of mice are grouped according to the following table:
# Four animals in group 1, and eight animals in groups 2 to 7 are euthanized in CO2 2 hours after the last compound administration on day 7. […]
# Serum samples are analyzed for anti-TNP antibody titers by ELISA as described herein. […] HRP substrate (200 μl ABTS solution+30% H2O2+10 ml citrate buffer) is added to each well at 100 μl/well, incubated 2-20 minutes in the dark and the amount of anti-TNP IgG3 is determined spectrophotometrically at 405 nm. Similarly, anti-TNP IgM and total anti-TNP Ab are determined using anti-mouse IgM-HRP and anti-mouse Ig-HRP respectively.
# Antibody production was measured using ELISA and plotted as a percentage of control group that were treated with vehicle.
# marginal zone B cells = assay: Marginal zone B cells in mouse spleen (FACS); format: in vivo; settings: 60 mg/kg, spleens harvested 2 hrs after the last dose, FIG. 9
# Experimental: The effect of the compounds on the localization/viability of marginal zone B cells in the spleen is also evaluated at the conclusion of treatment.
# Spleens were harvested 2 hrs after the last dose, processed and stained with appropriate antibodies (marginal zone B cell: B220+;CD23−;CD21hi) and analyzed for staining on GUAVA EasyCyte FACS machine using Guava Cytosoft 5.2 software.
smiles,measurement,setting,value
Nc1nc2cc(-c3ccc4ncc(C(=O)N5CCOCC5)n4c3)ccc2o1 [Compound A],"B cell function in vivo (antibody production, ELISA)",[1],not
same,localization/viability of marginal zone B cells,marginal zone B cells,does not affect
